14 molecules from patent publication US6645501B2, “Anti-pathogen system and methods of use thereof” (Washington University, priority 1997, dated 2003) can be followed below.

Assay type in all cases: cell-based
For one series, the system named is Jurkat T-cells. In words: Transduction of FITC-labeled synthetic peptides into Jurkat T-cells (rate and intracellular concentration versus TAT). To be noted: for Intracellular Concentration / Rate Compared to TAT: FITC-labeled peptide, Jurkat T-cells; for Intracellular Concentration: at equilibrium, relative to the TAT peptide; for Rate Compared to TAT: sign relative to TAT. As to the method:
The following artificial (i.e. synthetic) peptides were made by conventional peptide synthesis as described above. A goal of this experiment was to produce transduction domains that could transduce more effectively as judged by the intracellular concentration in transduced cells. The transduction domains were tested against a suitable control, which typically was the “natural” TAT or an Antp transduction domain. Briefly, a FITC group was synthetically attached to N-terminus of 100% of each peptide so that transduction rate and intracellular concentration of each peptide could be quantified at equilibrium. The TAT transduction domain is recognized to be alpha-helical. In each synthetic peptide sequence, an alpha-helix was modeled with varying amounts of Arg on one face. That is, a series of synthetic peptides was designed that contained varying amounts of Arg residues on one surface and substituted with Ala residues. Both Ala and Arg residues have the highest probability/energetics for maintaining an alpha-helical structure. See FIG. 7, which depicts each peptide as a helical wheel projection. The peptides are shown below in Table 2.
The synthetic peptides were transduced into Jurkat T-cells along lines described above in Example 4.

Series [1] concerns Jurkat T-cells infected by HIV (strain NLHX). In words: Killing of HIV-infected Jurkat T-cells, trypan blue exclusion and microscopy. As to the method: About 5×10^6 Jurkat T-cells were infected by HIV (strain NLHX; about 1×10^5 to 1×10^6 infectious virus per ml). The cells were propagated in RPMI media. Approximately 4 to 7 days after the infection, the media was removed from the plates and about 35 to 45 nanomoler of the TAT-CPP32 fusion protein was added to the cells. The cells were incubated with the fusion proteins for about 30 minutes to allow transduction into the cells. […] Subsequently, media was added back to the plates and after about 18 hours post-transduction, the cells were examined for cell killing using conventional trypan blue exclusion and microscopy.
Briefly, cells were infected and transduced as described in Example 6 above. Following the transduction, about 1 μg/ml Ritonavir was added to the cell media and allowed to incubate with the cells for about 18 hours. The cells were then assayed for cell killing by conventional trypan blue exclusion and microscopy. […]

Series [2] relates to Jurkat T cells infected with the NLHX strain of HIV-I. As to the kind of experiment: Cytotoxicity of TAT-Casp3 on HIV infected Jurkat cultures, exclusionary dye viability analysis. Conditions: 1 μg/ml Ritonavir prior to 100 nM TAT-Casp3WT. The text has this:
To make this determination, Jurkat T cells were infected for 7-14 days with the NLHX strain of HIV-I and examined microscopically for HIV cytopathic effects. See Westervelt, P., et al., Identification of a determinant within the HIV-1 surface envelope glycoprotein critical for productive infection of cultured primary monocytes. Proc. Natl. Acad. Sci USA 88: 3097 (1991). At the start of each transduction experiment approximately 50% of the culture was HIV positive. HIV infected cultures were transduced for 16 hr with 100 nM TAT-Casp3WT or TATCasp3MUT protein and then assayed for cell viability (FIG. 13). […] In addition, we detected both the appearance of cells containing <2N DNA content and cells with condensed nuclei in TAT-Casp3 treated cells.
To determine if TAT-Casp3WT induced apoptosis was dependent on active HIV Protease in the infected cultures, HIV infected cultures were pretreated with 1 μg/ml Ritonavir prior to transduction with 100 nM TAT-Casp3WT protein (FIG. 5). […] In addition, the observed increased survival of Ritonavir treated cells is consistent with increased longevity of protease inhibitor treated HIV infected cells. See Coffin, J. M., et al. (supra).
The specific killing of HIV infected cells shown in FIG. 5 is explained in more detail as follows. Jurkat T cells were infected for 7-14 days with HIV strain NLHX, then transduced with TAT-Casp3WT (WT) or TAT-Casp3MUT (MUT) proteins for 16 hr and assayed for cell viability. […] Ctrl, control addition of PBS to cultures; abscissa, % viability of HIV positive cells in the population at start of transduction; error bars represent SD.
(§1) 1. […] See Lissy, N. A., et al. (supra). […] See Ezhevsky, S. A., et al. (supra). […] See Xiang, J., et al., (supra). […] See Xiang, J., et al., (supra). […] See Ezhevsky, S. A., et al. (supra).

Series [3] has as its system Jurkat T cells. In words: Co-transduction of uninfected Jurkat T cells with TAT-CPP32 and TAT-Protease, survival by trypan-blue exclusionary dye microscopy. As to the method:
To test for activation of the TAT-CPP32 by TAT-Protease, 2×10^6 Jurkat T cells were placed in 2 ml of culture (RPMI media). To these cells, various combinations of control and experimental transducible proteins were added in 50-100 nM ranges, as follows:
The cells were assayed for survival at 18 hr post-addition by trypan-blue exclusionary dye microscopy. […] Thus, activation of TAT-CPP32 requires the presence of HIV protease.

Series [4] has as its system Jurkat T cells. As to the kind of experiment: FACS and confocal analysis of FITC-labeled TAT fusion proteins added to Jurkat T cells. Conditions: FITC-labeled protein added to media of Jurkat T cells. As to the method: To test the ability of TAT-Casp3 proteins to transduce into cells, TAT-Casp3 proteins were conjugated to fluorescein (FITC), then added directly to the media of Jurkat T cells and analyzed by Flow Cytometry (FACS) (FIGS. 9B-C). Both TAT-Casp3WT and TAT-Casp3MUT proteins rancidly transduced into ˜100% of cells, achieving maximum intracellular concentration in less than 20 min. In addition, based on the narrow peak width before and after addition of FITC labeled proteins, individual cells within the population contain near identical intracellular concentrations of TAT-Casp3-FITC protein. […] Thus, TAT-Casp3 proteins readily transduce into 100% of all cells inca rapid and concentration-dependent fashion.
The generation and transduction of TAT fusion proteins shown in FIGS. 9A-E are explained in more detail as follows: FIG. 9A. Diagram depicting HIV cleavage site sequences and domains of TAT fusion proteins. FIGS. 9B-D. FACS kinetic analysis of fluorescein (FITC) labeled TAT-Casp3WT, TAT-Casp3MUT and TAT-HIV Pr proteins added to cells at 0, 20 and 30 min. FIG. 9E. FACS dose analysis of 3, 6, and 12 nM TAT-Casp3WT-FITC protein added to cells at I hr post-addition. Note rapid, concentration-dependent transduction of all FITC labeled protein into ˜100% of cells and near identical intracellular concentration within the population as measured by FACS peak width of control vs. transduced cells.
as §1

In the next series the target is T1, HIV Protease (Human immunodeficiency virus type 1 group M subtype B, UniProt P04585).
T1 construct: PCR cloning the HIV Protease gene from HXB2R HIV strain; 6xHis (from the pTAT vector) (N); made in house; the purified protein was added to Jurkat T cells
In words: In vivo substrate cleavage by co-transduced TAT-HIV Pr in Jurkat T cells, immunoblot. As to the method:
To assay for in vivo cleavage, p 16(−) Jurkat T cells were transduced with 100 nM TAT-Ap16 or control TAT-p16 protein (no HIV cleavage site) alone or in combination with 50 nM TATHIV Pr fusion protein for 5 hr and analyzed by anti-p16 immunoblot for in vivo cleavage at the HIV A proteolytic cleavage site (FIG. 10A). […] Size analysis of the cleaved TAT-A-p 16 protein was consistent with retention of the residual HIV half site present on the N′ terminus of p 16 (FIG. 10A, see lane 4 vs. 5).
Further, the TAT-Casp3MUT protein was transduced in combination with TAT-HIV Pr protein into cells (FIG. 10B).
The in vivo processing in co-transduced cells shown in FIGS. 10A and 10B is explained in more detail as follows. FIG. 10A. Cultures of p16(−) Jurkat T cells were transduced with TAT-p 16 or TAT-A-p 16 substrate proteins in combination with TATHIV Pr proteins for 5 hr and subjected to anti-p 16 immunoblot analysis. […] WCE, HepG2 whole cell lysate containing wild type endogenous p16; A-p16, cleaved TAT-A-16 product retaining the HIV half site on p16. FIG. 10B. Cultures of Jurkat T cells were transduced with TATCasp3MUT protein (TAT-“D” site-p 17 domain-“A” site-p12 domain) alone or in combination with TAT-HIV Pr (Pr) protein as indicated and immunoblotted with anti-Caspase-3 antibodies specific for the p17 domain. TAT-D-p17-A, cleaved product of TAT-Casp3 containing the N′ terminal HIV A half site.
as §1
(A western blot detects proteins with antibodies after separation by electrophoresis.)

Where [5] appears, read: 50-100 nM, uninfected Jurkat T cells, 18 hr post-addition.

Entries after “also recorded” stand apart in the source; their conditions may differ.

For “1 (AKIWFQNRRMKWKKEN; human) [compound 1]”, in the series with Jurkat T-cells, the “Intracellular Concentration” value turned out to be 1 X and the “Rate Compared to TAT” value is “=”.

As for 2 (YGRKKRRQRRR; human) [compound 2], in the series with Jurkat T-cells, the “Intracellular Concentration” value is 1 X and the “Rate Compared to TAT” value was “=”.

Regarding 3 (YARKARRQARR; human) [compound 3], in the series with Jurkat T-cells, the “Intracellular Concentration” value worked out at 10 X and the “Rate Compared to TAT” value is listed as “=”.

With 4 (YARAAARQARA; human) [compound 4], in the series with Jurkat T-cells, the “Intracellular Concentration” value worked out at 5 X and the “Rate Compared to TAT” value is listed as “=”.

On to 5 (YARAARRAARR; human) [compound 5], for which, in the series with Jurkat T-cells, the “Intracellular Concentration” value is recorded as 10 X and the “Rate Compared to TAT” value is reported as “=”.

Take 6 (YARAARRAARA; human) [compound 6]: in the series with Jurkat T-cells, the “Intracellular Concentration” value was determined as 5 X and the “Rate Compared to TAT” value was “=”.

On to 7 (YARRRRRRRRR; human) [compound 7], for which, in the series on Jurkat T-cells, the “Intracellular Concentration” value came out at 5 X and the “Rate Compared to TAT” value was “=”.

Turning to 8 (YAAARRRRRRR; human) [compound 8], in the series with Jurkat T-cells, the “Intracellular Concentration” value was determined as 5 X and the “Rate Compared to TAT” value is on record as “=”.

As to “10 (CTERQANFLGKIWP; human) [compound 10]”, in the series on Jurkat T-cells, the “Intracellular Concentration” value is given as 1 X and the “Rate Compared to TAT” value is “<”.

Consider `CC(C)c1nc(CN(C)C(=O)N[C@H](C(=O)N[C@@H](Cc2ccccc2)C[C@H](O)[C@H](Cc2ccccc2)NC(=O)OCc2cncs2)C(C)C)cs1` [Ritonavir, reference compound], for which the “effect on the ability of TAT-CPP32 to kill infected cells” value in series [1] (about 1 μg/ml Ritonavir added after transduction, about 18 hours) is reported as “essentially blocked”. For the same molecule, the “effect of pretreatment on TAT-Casp3WT killing of HIV infected cells” value in series [2] is reported as “protection from TAT-Casp3WT induced apoptosis; also recorded: protects infected cells”. Besides, the “effect of the protease inhibitor on TAT-CPP32 wild type killing” value with Jurkat T cells [3] (added to TAT-CPP32 wild type plus TAT-Protease experiment) was “loss of specific TAT-CPP32 wild type killing”.

On to “RQIKIWFQNRRMKWKK [SEQ ID NO. 10, reference compound]”, for which the “transduction rate relative to the TAT peptide (in words)” value in the series on Jurkat T-cells is reported as “slower transduction rate”.

B1: TAT-A-p16: HIV A (p17-p24) cleavage site inserted between the TAT and p16 domains (protein)
chain: GRKKRRQRRRGSQVSQNYPIVQNLQMEPAAGSSMEPSADWLATAAARGRVEEVRALLEAGALPNAPNSYGRRPIQVMMMGSARVAELLLLHGAEPNCADPATLTRPVHDAAREGFLDTLVVLHRAGARLDVRDAWGRLPVDLAEELGHRDVARYLRAAAGGTRGSNHARIDAAEGPSDIPD
modifications: left off: small tags and cut ends
notes: HIV A (p17-p24) cleavage site inserted between the TAT and p16 domains
B1: the cells transduced with Jurkat T cells [4] was 100%. Besides, the “cleavage at the HIV cleavage site when co-transduced with TAT-HIV Pr” value with HIV Protease (100 nM substrate, 50 nM TAT-HIV Pr, Jurkat T cells, immunoblot) is “specific substrate cleavage”.

B2: TAT-CPP32 mutant (protein)
chain: GRKKRRQRRRGYPYDVPDYACTERQANFLGKIWPGISLDNSYKMDYPEMGLCIIINNKNFHKSTGMTSRSGTDVDAANLRETFRNLKYEVRNKNDLTREEIVELMRDVSKEDHSKRSSFVCVLLSHGEEGIIFGTNGPVDLKKITNFFRGDRCRSLTGKPKLFIIQAMRGTELDCGIETSQVSQNYPIVQNLQGVDDDMACHKIPVEADFLYAYSTAPGYYSWRNSKDGSWFIQSLCAMLKQYADKLEFMHILTRVNRKVATEFESFSFDATFHAKKQIPCIVSMLTKELYFYH
modifications: left off: small tags and cut ends
As for B2, the “killing of HIV-infected cells” value in series [1] (about 35 to 45 nanomoler, about 18 hours post-transduction) is “not capable of killing”. Moreover, in the series with Jurkat T cells [3] (setting [5]), the “cytotoxicity when added alone” value was “minimal cytotoxicity” and the “loss of viable cells when added plus TAT-Protease” value is given as “not”.

B3: TAT-Dp16: TAT-p16 fusion protein containing the HIV D (p7-p1) cleavage site (protein)
chain: GRKKRRQRRRGCTERQANFLGKIWPMEPAAGSSMEPSADWLATAAARGRVEEVRALLEAGALPNAPNSYGRRPIQVMMMGSARVAELLLLHGAEPNCADPATLTRPVHDAAREGFLDTLVVLHRAGARLDVRDAWGRLPVDLAEELGHRDVARYLRAAAGGTRGSNHARIDAAEGPSDIPD
modifications: left off: small tags and cut ends
notes: TAT-p16 fusion protein containing the HIV D (p7-p1) cleavage site
In the case of B3, the “preference between HIV A site and D site” value in the series with HIV Protease (co-transduction with TAT-HIV Pr) was “HIV A site was preferentially cleaved over”.
